Laboratory results taken from patent EP0703239A1, “Aminomethylphosphonic and aminomethylphosphinic acids derivatives and their use in the treatment of degenerative articular diseases” (priority 1994, dated 1996).
Counter-ions that a name gives are not always drawn. Like-named read-outs stand apart in the source and are kept apart here. Blank lines part the entries; values can stand above or below the compound they belong to.

Columns and labels:
Chondrozyten [1] = assay: Stimulation of cartilage matrix (proteoglycan) synthesis in chondrocyte agarose culture, 35S-sulfate incorporation; assay type: cell-based, Rinder; conditions: for fold induction at 10 µM: Chondrocyte, read-out: Stimulationsfaktor der Proteoglykansynthese
Text: 1. Wirksamkeit in der Synthese-Stimulierung von Knorpel-Matrix, Prüfung in der Chondrozyten-Kultur
Zellen: Den Fußgelenken frisch geschlachteter Rinder werden der hyaline Knorpel entnommen, mit Pronase (Boehringer Mannheim) und Collagenase (Sigma), die native Matrix enzymatisch abgebaut, und die Chondrozyten in 1 %iger "low melting Agarose" in 24er Multiwell-Schalen in einer Zelldichte von 4 x 10⁶ pro well ausplattiert.
Medium: Komplettes Medium enthält HAM's F12 (Biochrom KG, Berlin) und 10 % foetales Kälberserum (Boehringer Mannheim), die Testsubstanz wird in Medium gelöst, üblicherweise in einer Konzentration von 10⁻⁵ M zugegeben und bei jedem Mediumwechsel erneut zugefügt.
Versuchsdurchführung: Die Behandlung erfolgt vom dritten bis zehnten Tag der Primärkultur, am 9. […] Die dissoziative Extraktion der Proteoglykane aus der Agarose-Schicht wird mit 8M Guanidinium-Hydrochlorid und beigefügten Proteinase-Inhibitoren (Sigma) unter Schütteln bei 4° C über 24 h durchgeführt. Der Überstand wird nach Zentrifugation über eine PD 10 ®Sephadex G 25 Säule in freies und inkorporiertes Sulfat getrennt, dessen Aktivität nach Aliquotierung im β-Szintillationscounter gemessen wird.
Auswertung: Der Parameter für die Matrixproduktion der Chondrozyten ist die Menge synthetisierter Proteoglykane, gemessen als Sulfatinkorporation in cpm. Aus vier Wells pro Gruppe wird der Mittelwert errechnet. Dieser wird durch den Mittelwert der unbehandelten Kontrolle dividiert, und ergibt somit einen Stimulationsfaktor, der bei Stimulation der Matrixsynthese größer 1 ist, bei Hemmung derselben durch Substanzwirkung kleiner 1, und bei unveränderter Matrixsynthese gleich 1 ist.
Als Standard wird Diacerein eingesetzt, das unter dem Markennamen "Artodar" von der Firma Proter bzw. […] Tabelle II

Chondrozyten [2] = assay: IL-1-induced chondrocytic chondrolysis in chondrocyte agarose culture, 35S-sulfate incorporation; conditions: agarose cell culture with 5 u/ml human rec. IL-1 alpha; factor relative to IL-1 treated control
Rattenlebermikrosomen = assay: Inhibition of microsomal lipid peroxidation (malondialdehyde/thiobarbituric acid); assay type: biochemical, Ratte; conditions: rat liver microsomes, FeSO₄ start, 10 min 37°C; read-out: IC50 Mikrosomale Lipidperoxidation
Method: 4. Hemmung der Mikrosomalen Lipidperoxidation […]
Alle Schritte werden bei 0°C durchgeführt. Die Leber einer Ratte wird, um alles Hämoglobin zu entfernen, mit 0,9 % NaCl-Lösung gründlich gespült. Die grob zerkleinerte Leber wird dann in 10 mM Tris/HCl pH 7,4; 250 mM Saccharose (10 ml Puffer/g Leber) gepottert. Zunächst wird 5 Minuten bei 600xg zentrifugiert. Der Überstand wird dann 10 min bei 12000xg zentrifugiert und wird mit festem CaCl₂ (117,6 mg/100 ml) auf eine Konzentration von 8 mM eingestellt. Durch Zentrifugieren bei 25000 xg (15 min) wird ein Mikrosomenniederschlag gewonnen. Dieser Niederschlag wird im gleichen Volumen Puffer (10 mM Tris/HCl pH 7,4; 150 mM KCl) rehomogenisiert und erneut 15 min bei 25000 xg zentrifugiert.
Ein Testansatz besteht aus 20 µl Mikrosomen (100 mg/ml), vgl. oben, gelöst in Puffer (250 mM Tris/HCl pH 6,6, 750 mM KCl), 10 µl 50 mM MgCl₂, 10 µl 200 mM Isocitronensäure, 10 µl 4mM NADP (3,028 mg/ml Wasser), 10 µl 25 mM Niacinamid, 10 µl Isocitratdehydrogenase (1:100 verdünnt) und 20 µl Wasser oder Testsubstanz. Gestartet wird die Reaktion mit 10 µl 0,25 mM FeSO₄. Die Inkubation dauert 10 Minuten und erfolgt bei 37°C. Gestoppt wird mit 500 µl eiskalter 20 %iger Trichloressigsäure. Entstandenes Malondialdehyd wird durch Zugabe von 500 µl 0,67 %iger Thiobarbitursäure und 30 Minuten Inkubation bei 90°C in eine pinkfarbene Verbindung überführt, die bei 532 nm gemessen wird. Die Extinktion im Kontrollansatz ohne Prüfpräparat wird auf 0 % Hemmung gesetzt, während das völlige Verschwinden des Signals 100 % Hemmung bedeutet.

[3] = agarose cell culture, test substance usually 10⁻⁵ M, mean sulfate incorporation divided by untreated control (>1 = stimulation)

Compound: CCOP(=O)(OCC)C(Nc1ccc(OC)cc1)c1cc(C(C)(C)C)c(O)c(C(C)(C)C)c1 (stereo not shown) [Beispiel 57]
fold induction at 10 µM (Chondrozyten [1]): 1.5
Stimulationsfaktor der Proteoglykansynthese (Chondrozyten [2]): 1,4

Compound: CCOP(=O)(OCC)C(Nc1ccc(C(F)(F)F)cc1)c1cc(C(C)(C)C)c(O)c(C(C)(C)C)c1 (stereo not shown) [Beispiel 51]
fold induction at 10 µM (Chondrozyten [1]): 1.6

Compound: CCOP(=O)(OCC)C(Nc1ccc(OC)c(OC)c1)c1cc(C(C)(C)C)c(O)c(C(C)(C)C)c1 (stereo not shown) [Beispiel 58]
fold induction at 10 µM (Chondrozyten [1]): 2.5
Stimulationsfaktor der Proteoglykansynthese (Chondrozyten [2]): 1,2

Compound: CCOP(=O)(OCC)C(Nc1ccccn1)c1cc(C(C)(C)C)c(O)c(C(C)(C)C)c1 (stereo not shown) [Beispiel 79]
fold induction at 10 µM (Chondrozyten [1]): 1.6
IC50 (Rattenlebermikrosomen): 2.3 µM
Stimulationsfaktor der Proteoglykansynthese (Chondrozyten [2]): 1,2

Compound: CCOP(=O)(OCC)C(Nc1cc(C(F)(F)F)ccc1F)c1cc(C(C)(C)C)c(O)c(C(C)(C)C)c1 (stereo not shown) [Beispiel 52]
fold induction at 10 µM (Chondrozyten [1]): 1.7

Compound: CCOP(=O)(O)C(Nc1ccccn1)c1cc(C(C)(C)C)c(O)c(C(C)(C)C)c1 (stereo not shown) [Beispiel 78]
fold induction at 10 µM (Chondrozyten [1]): 1.4

Compound: 1-(4-Chloranilino)-1-(3,5-di-tert.butyl-4-hydroxy-phenyl)-methanphosphonsäurediethylester [Beispiel 1]
Stimulationsfaktor der Proteoglykansynthese (Chondrozyten [1]; agarose cell culture, test substance usually 10⁻⁵ M, mean sulfate incorporation divided by untreated control (>1 = stimulation), 10 µM): 1,4
IC50 (Rattenlebermikrosomen): 2.43 µM
Stimulationsfaktor der Proteoglykansynthese (Chondrozyten [2]): 1,5

Stimulationsfaktor der Proteoglykansynthese (Chondrozyten [2]): 1,1
Compound: CC(=O)Oc1cccc2c1C(=O)c1c(OC(C)=O)cc(C(=O)O)cc1C2=O [Diacerein, reference compound]
fold induction at 10 µM (Chondrozyten [1]; [3]): 1

Compound: CCOP(=O)(OCC)C(NCc1ccc(N)cc1)c1cc(C(C)(C)C)c(O)c(C(C)(C)C)c1 (stereo not shown) [Beispiel 34]
fold induction at 10 µM (Chondrozyten [1]): 1.2
IC50 (Rattenlebermikrosomen): 0.7 µM

Compound: CCOP(=O)(OCC)C(Nc1ccc(S(N)(=O)=O)cc1)c1cc(C(C)(C)C)c(O)c(C(C)(C)C)c1 (stereo not shown) [Beispiel 68]
IC50 (Rattenlebermikrosomen): 2.37 µM
Stimulationsfaktor der Proteoglykansynthese (Chondrozyten [2]): 1,3

Compound: CCCOP(=O)(OCCC)C(NCc1ccc2c(c1)OCO2)c1cc(C(C)(C)C)c(O)c(C(C)(C)C)c1 (stereo not shown) [Beispiel 2, 1-(3,4-Methylendioxybenzylamino)-1-(3,5-di-tert.butyl-4-hydroxy-phenyl)methanphosphonsäure-di-n-propylester-hydrochlorid]
fold induction at 10 µM (Chondrozyten [1]; [3]): 1.2
IC50 (Rattenlebermikrosomen): 2.3 µM
Stimulationsfaktor der Proteoglykansynthese (Chondrozyten [2]): 4,3

Compound: CCCCOP(=O)(OCCCC)C(Nc1ccc(Cl)c(Cl)c1)c1cc(C(C)(C)C)c(O)c(C(C)(C)C)c1 (stereo not shown) [Beispiel 49]
fold induction at 10 µM (Chondrozyten [1]; [3]): 1.2
IC50 (Rattenlebermikrosomen): > 10 µM
Stimulationsfaktor der Proteoglykansynthese (Chondrozyten [2]): 1,5

Compound: CCOP(=O)(OCC)C(Nc1ccc(F)cc1)c1cc(C(C)(C)C)c(O)c(C(C)(C)C)c1 (stereo not shown) [Beispiel 38]
fold induction at 10 µM (Chondrozyten [1]): 1.7
Stimulationsfaktor der Proteoglykansynthese (Chondrozyten [2]): 1,3

Compound: CCOP(=O)(OCC)C(Nc1ccccc1C(=O)OC)c1cc(C(C)(C)C)c(O)c(C(C)(C)C)c1 (stereo not shown) [Beispiel 65]
fold induction at 10 µM (Chondrozyten [1]): 1.3
IC50 (Rattenlebermikrosomen): 0.73 µM

IC50 (Rattenlebermikrosomen): 0.49 µM
Stimulationsfaktor der Proteoglykansynthese (Chondrozyten [2]): 2,1
Compound: CC(C)(C)c1cc(C(Nc2ccc(Cl)cc2)[PH](=O)O)cc(C(C)(C)C)c1O (stereo not shown) [Beispiel 40]

Compound: CCCOP(=O)(OCCC)C(Nc1ccc(Cl)cc1)c1cc(C(C)(C)C)c(O)c(C(C)(C)C)c1 (stereo not shown) [Beispiel 44]
IC50 (Rattenlebermikrosomen): 1.05 µM
Stimulationsfaktor der Proteoglykansynthese (Chondrozyten [2]): 1,5

Compound: CCOP(=O)(OCC)C(NC1CCCCC1)c1cc(C(C)(C)C)c(O)c(C(C)(C)C)c1 (stereo not shown) [Beispiel 8]
fold induction at 10 µM (Chondrozyten [1]): 1.2
IC50 (Rattenlebermikrosomen): 0.73 µM

Compound: CCOP(=O)(OCC)C(NCc1ccc2c(c1)OCO2)c1cc(C(C)(C)C)c(O)c(C(C)(C)C)c1 (stereo not shown) [Beispiel 30]
fold induction at 10 µM (Chondrozyten [1]): 1.4
Stimulationsfaktor der Proteoglykansynthese (Chondrozyten [2]): 1,5

Stimulationsfaktor der Proteoglykansynthese (Chondrozyten [2]): 2,5
Compound: CC(C)(C)c1cc(C(Nc2ccccc2)[PH](=O)O)cc(C(C)(C)C)c1O (stereo not shown) [Beispiel 36]
fold induction at 10 µM (Chondrozyten [1]; [3]): 1.2

Compound: CCCCOP(=O)(OCCCC)C(Nc1ccc2ccccc2c1)c1cc(C(C)(C)C)c(O)c(C(C)(C)C)c1 (stereo not shown) [Beispiel 77]
IC50 (Rattenlebermikrosomen): 8.7 µM
Stimulationsfaktor der Proteoglykansynthese (Chondrozyten [2]): 1,3

Compound: COP(=O)(OC)C(NCc1ccc2c(c1)OCO2)c1cc(C(C)(C)C)c(O)c(C(C)(C)C)c1 (stereo not shown) [Beispiel 29]
IC50 (Rattenlebermikrosomen): 0.69 µM
Stimulationsfaktor der Proteoglykansynthese (Chondrozyten [2]): 1,5
